Measured values reported in paper PMC11266321 (EJNMMI Radiopharmacy and Chemistry, 2024).
Where “and” joins values, the source holds several entries; their conditions need not be identical. Equal values may be shown once.

Columns and labels:
[1] = target: T1, Adenosine A2 (Homo sapiens, UniProt P29274); assay: Radioligand binding inhibition, Adenosine A2; settings: 10 µM; radioligand [^3H]CGS21680; mean of duplicate
T1 construct: Sekisui Medical (contract laboratory)
Procedure: (§1) Interaction of MMP with 28 binding sites was examined, including major classes of neurotransmitter receptor, uptake system, and ion channels (Sekisui Medical, Naka, Japan). MMP was tested in all assays at 10 µM. […] Each determination was made in duplicate.
(§2) Test substance concentration : 10 µM, positive substance concentration : 10 µM
(§3) Data are expressed as the mean values of duplicate samples.
(§4) The % inhibition was calculated from “100 – binding ratio”.
(§5) Binding ratio: [(B - N) / (B0 - N)] × 100 (%)
(§6) B: Bound radioactivity in the presence of test substance and positive substance (individual value)
(§7) B0: Total bound radioactivity in the absence of test substance and positive substance (mean value)
(§8) N: Non-specific bound radioactivity (mean value)

[2] = test system: β-Adrenergic (non-selective); assay: Radioligand binding inhibition, β-Adrenergic; settings: 10 µM; radioligand [^3H]DHA; mean of duplicate
Procedure: (§9) Interaction of MMP with 28 binding sites was examined, including major classes of neurotransmitter receptor, uptake system, and ion channels (Sekisui Medical, Naka, Japan). MMP was tested in all assays at 10 µM. […] 10.2.3 (GraphPad Software, San Diego, CA). Each determination was made in duplicate.
as §2, §3, §4, §5, §6, §7, §8

[3] = target: T2, Dopamine D1 (Homo sapiens, UniProt P21728); assay: Radioligand binding inhibition, Dopamine D1; settings: 10 µM; radioligand [^3H]SCH23390; mean of duplicate
T2 construct: Sekisui Medical (contract laboratory)
T2 sequence (P21728 whole entry): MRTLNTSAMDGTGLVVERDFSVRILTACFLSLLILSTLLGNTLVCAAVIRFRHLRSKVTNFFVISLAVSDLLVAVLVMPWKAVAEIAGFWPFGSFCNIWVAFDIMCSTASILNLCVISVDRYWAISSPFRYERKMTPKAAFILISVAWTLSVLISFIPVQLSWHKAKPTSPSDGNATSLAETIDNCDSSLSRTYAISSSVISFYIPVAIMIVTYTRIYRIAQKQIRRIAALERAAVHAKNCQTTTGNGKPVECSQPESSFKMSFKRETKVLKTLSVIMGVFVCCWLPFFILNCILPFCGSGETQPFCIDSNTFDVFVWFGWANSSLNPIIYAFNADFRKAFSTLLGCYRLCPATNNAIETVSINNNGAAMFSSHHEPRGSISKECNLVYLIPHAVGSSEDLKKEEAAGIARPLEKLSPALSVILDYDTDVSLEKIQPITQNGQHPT
Procedure: as §1, §2, §3, §4, §5, §6, §7, §8

[4] = test system: GABA A (agonist site); assay: Radioligand binding inhibition, GABA A agonist site; settings: 10 µM; radioligand [^3H]Muscimol; mean of duplicate
Procedure: as §9, §2, §3, §4, §5, §6, §7, §8

[5] = test system: GABA A (BZ central); assay: Radioligand binding inhibition, GABA A BZ central; settings: 10 µM; radioligand [^3H]Flunitrazepam; mean of duplicate
Procedure: as §9, §2, §3, §4, §5, §6, §7, §8

[6] = target: T3, GABA B (Homo sapiens, UniProt Q9UBS5); assay: Radioligand binding inhibition, GABA B; settings: 10 µM; radioligand [^3H]GABA; mean of duplicate
T3 construct: Sekisui Medical (contract laboratory)
T3 sequence (Q9UBS5 15-961 limits assumed): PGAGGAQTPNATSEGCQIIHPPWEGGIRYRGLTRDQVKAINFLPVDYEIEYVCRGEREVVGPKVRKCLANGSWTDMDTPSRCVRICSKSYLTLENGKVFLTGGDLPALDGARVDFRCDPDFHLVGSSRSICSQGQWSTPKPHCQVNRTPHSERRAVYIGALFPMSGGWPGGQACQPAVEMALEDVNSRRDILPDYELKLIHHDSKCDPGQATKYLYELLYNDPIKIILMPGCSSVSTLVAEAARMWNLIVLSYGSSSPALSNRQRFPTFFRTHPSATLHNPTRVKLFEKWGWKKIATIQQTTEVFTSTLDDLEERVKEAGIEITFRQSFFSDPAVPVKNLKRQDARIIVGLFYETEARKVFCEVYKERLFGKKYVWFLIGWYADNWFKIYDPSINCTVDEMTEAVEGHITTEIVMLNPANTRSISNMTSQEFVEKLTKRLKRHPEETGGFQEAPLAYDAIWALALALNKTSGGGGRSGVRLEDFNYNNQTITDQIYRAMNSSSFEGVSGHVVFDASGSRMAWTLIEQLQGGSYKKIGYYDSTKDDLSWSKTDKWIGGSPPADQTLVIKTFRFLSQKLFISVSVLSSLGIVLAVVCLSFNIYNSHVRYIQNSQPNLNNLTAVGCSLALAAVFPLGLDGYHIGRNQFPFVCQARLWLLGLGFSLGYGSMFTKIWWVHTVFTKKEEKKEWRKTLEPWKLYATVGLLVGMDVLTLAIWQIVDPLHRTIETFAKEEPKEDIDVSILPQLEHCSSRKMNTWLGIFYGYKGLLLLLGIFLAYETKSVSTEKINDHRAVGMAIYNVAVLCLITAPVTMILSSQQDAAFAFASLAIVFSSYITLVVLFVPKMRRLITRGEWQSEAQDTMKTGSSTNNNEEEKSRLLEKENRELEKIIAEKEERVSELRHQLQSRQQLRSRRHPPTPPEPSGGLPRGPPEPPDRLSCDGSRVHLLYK
T3 sequence (O75899 42-941 partner): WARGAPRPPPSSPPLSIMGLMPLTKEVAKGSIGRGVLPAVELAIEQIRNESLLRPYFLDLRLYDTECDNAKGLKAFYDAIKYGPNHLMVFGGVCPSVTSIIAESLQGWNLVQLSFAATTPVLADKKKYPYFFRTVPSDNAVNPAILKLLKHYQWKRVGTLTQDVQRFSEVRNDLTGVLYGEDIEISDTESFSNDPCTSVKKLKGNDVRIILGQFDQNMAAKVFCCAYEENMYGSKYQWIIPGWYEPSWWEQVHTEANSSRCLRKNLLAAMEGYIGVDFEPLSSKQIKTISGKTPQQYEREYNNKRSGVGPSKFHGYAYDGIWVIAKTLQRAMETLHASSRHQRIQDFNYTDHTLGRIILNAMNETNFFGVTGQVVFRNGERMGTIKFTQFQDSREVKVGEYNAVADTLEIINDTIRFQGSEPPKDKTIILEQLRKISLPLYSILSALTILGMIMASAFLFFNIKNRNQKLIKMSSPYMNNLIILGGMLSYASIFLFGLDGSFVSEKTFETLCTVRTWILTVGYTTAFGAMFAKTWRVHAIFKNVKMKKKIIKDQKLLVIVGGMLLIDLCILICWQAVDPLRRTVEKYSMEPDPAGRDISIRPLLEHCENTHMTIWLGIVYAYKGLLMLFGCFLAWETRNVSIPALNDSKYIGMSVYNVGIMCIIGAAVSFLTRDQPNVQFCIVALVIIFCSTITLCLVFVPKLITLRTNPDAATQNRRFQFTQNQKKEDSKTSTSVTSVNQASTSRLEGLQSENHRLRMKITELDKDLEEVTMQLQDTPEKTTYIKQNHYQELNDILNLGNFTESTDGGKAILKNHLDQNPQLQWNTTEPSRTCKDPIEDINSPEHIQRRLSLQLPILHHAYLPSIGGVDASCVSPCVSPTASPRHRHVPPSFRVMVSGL
Procedure: as §1, §2, §3, §4, §5, §6, §7, §8

[7] = test system: Glutamate (non-selective); assay: Radioligand binding inhibition, Glutamate non-selective; settings: 10 µM; radioligand [^3H]Glutamic acid; mean of duplicate
Procedure: as §9, §2, §3, §4, §5, §6, §7, §8

[8] = test system: Glutamate (AMPA); assay: Radioligand binding inhibition, Glutamate AMPA; settings: 10 µM; radioligand [^3H]AMPA; mean of duplicate
Procedure: as §9, §2, §3, §4, §5, §6, §7, §8

[9] = test system: Glutamate (Ketamine); assay: Radioligand binding inhibition, Glutamate (Ketamine); settings: 10 µM; radioligand [^3H]Kainic acid; mean of duplicate
[10] = test system: Glutamate (NMDA agonist site); assay: Radioligand binding inhibition, Glutamate NMDA agonist site; settings: 10 µM; radioligand [^3H]CGP-39653; mean of duplicate
Procedure: as §9, §2, §3, §4, §5, §6, §7, §8

[11] = target: T4, Glutamate (NMDA glycine site) (Homo sapiens, UniProt Q05586); assay: Radioligand binding inhibition, Glutamate NMDA glycine site; settings: 10 µM; radioligand [^3H]MDL105,519; mean of duplicate
T4 construct: Sekisui Medical (contract laboratory)
Procedure: as §9, §2, §3, §4, §5, §6, §7, §8

[12] = target: T5, Histamine H1 (central) (Homo sapiens, UniProt P35367); format: binding; settings: 10 µM; radioligand [^3H]Pyrilamine; mean of duplicate
T5 construct: Sekisui Medical (contract laboratory)
T5 sequence (P35367 whole entry): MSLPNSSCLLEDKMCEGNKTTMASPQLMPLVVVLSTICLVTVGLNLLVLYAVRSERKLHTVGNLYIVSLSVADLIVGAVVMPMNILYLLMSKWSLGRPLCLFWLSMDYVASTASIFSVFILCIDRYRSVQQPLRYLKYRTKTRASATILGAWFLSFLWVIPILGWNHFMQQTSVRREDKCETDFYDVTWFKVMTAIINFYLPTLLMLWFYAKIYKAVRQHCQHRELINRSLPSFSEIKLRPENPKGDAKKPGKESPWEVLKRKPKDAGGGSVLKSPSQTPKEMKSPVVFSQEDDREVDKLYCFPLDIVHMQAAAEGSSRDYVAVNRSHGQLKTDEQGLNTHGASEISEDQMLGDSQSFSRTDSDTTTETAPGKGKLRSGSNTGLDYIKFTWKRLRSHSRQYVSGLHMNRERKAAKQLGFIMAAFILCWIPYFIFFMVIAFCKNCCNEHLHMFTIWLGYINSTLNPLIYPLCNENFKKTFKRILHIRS

[13] = target: T6, Muscarinic M1 (Homo sapiens, UniProt P11229); format: binding; settings: 10 µM; radioligand [^3H]Pirenzepine; mean of duplicate
T6 construct: Sekisui Medical (contract laboratory)
T6 sequence (P11229 whole entry): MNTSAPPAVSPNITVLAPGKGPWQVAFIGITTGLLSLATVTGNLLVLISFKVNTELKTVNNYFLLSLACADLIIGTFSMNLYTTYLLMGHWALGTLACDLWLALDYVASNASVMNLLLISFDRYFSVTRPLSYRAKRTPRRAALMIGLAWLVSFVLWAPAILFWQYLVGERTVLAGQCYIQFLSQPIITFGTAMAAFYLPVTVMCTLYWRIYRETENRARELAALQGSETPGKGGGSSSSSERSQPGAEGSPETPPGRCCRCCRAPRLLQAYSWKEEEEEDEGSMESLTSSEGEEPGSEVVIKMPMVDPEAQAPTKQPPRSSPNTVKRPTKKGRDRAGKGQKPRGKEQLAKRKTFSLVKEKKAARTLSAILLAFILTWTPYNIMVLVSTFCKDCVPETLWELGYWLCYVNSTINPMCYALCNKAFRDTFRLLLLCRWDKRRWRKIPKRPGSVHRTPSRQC

[14] = test system: Opiate (non-selective); assay: Radioligand binding inhibition, Opiate; settings: 10 µM; radioligand [^3H]Naloxone; mean of duplicate
Procedure: as §9, §2, §3, §4, §5, §6, §7, §8

[15] = target: T7, Serotonin 5HT2A (Homo sapiens, UniProt P28223); assay: Radioligand binding inhibition, Serotonin 5HT2A; settings: 10 µM; radioligand [^3H]Ketanserin; mean of duplicate
T7 construct: Sekisui Medical (contract laboratory that ran the panel)
T7 sequence (P28223 whole entry): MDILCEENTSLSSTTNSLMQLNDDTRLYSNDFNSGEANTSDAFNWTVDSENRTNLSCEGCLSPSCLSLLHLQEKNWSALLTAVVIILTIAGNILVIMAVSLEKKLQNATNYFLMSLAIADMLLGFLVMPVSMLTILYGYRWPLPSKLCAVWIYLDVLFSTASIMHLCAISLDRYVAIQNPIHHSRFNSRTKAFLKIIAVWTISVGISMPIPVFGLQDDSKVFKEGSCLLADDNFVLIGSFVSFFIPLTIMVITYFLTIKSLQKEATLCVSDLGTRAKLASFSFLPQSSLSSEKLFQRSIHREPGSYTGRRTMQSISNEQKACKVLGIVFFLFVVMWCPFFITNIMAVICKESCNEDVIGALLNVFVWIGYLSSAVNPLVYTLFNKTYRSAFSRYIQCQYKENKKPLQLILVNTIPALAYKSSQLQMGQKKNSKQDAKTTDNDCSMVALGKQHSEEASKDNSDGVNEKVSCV
Procedure: as §9, §2, §3, §4, §5, §6, §7, §8

[16] = test system: Sigma (non-selective); assay: Radioligand binding inhibition and competitive inhibition curve, sigma receptor
Procedure: as §1
Data are expressed as mean values of duplicate samples.
as §2, §3, §4, §5, §6, §7, §8

T1 sequence (P29274 whole entry): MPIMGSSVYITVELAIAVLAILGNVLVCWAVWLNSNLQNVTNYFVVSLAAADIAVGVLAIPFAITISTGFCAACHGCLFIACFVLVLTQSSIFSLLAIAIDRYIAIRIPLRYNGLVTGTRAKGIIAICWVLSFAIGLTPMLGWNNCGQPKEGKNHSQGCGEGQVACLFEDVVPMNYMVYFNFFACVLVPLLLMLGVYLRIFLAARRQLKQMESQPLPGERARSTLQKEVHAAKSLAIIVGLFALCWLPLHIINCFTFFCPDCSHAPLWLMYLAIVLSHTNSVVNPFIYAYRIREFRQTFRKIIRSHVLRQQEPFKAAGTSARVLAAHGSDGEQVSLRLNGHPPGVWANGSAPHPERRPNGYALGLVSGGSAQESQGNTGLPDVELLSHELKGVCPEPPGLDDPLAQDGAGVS

With `Cc1ccc(CC(C)NC(C)C)cc1` (stereo not drawn) [MMP, N-isopropyl-p-methylamphetamine] the “Inhibition ratio (%)” value [1] was 1.64%, the “Inhibition ratio (%)” value [2] was 32.80% and the “Inhibition ratio (%)” value [3] was 6.90%. The “Inhibition ratio (%)” value [4] was 3.62%, the “Inhibition ratio (%)” value [5] was 2.17% and the “Inhibition ratio (%)” value [6] was 1.59%. For the same compound, the “Inhibition ratio (%)” value [7] was 0.00%, the “Inhibition ratio (%)” value [8] was 5.98% and the “Inhibition ratio (%)” value [9] was 11.86%. The “Inhibition ratio (%)” value [10] was 4.63%, the “Inhibition ratio (%)” value [11] was 0.22% and the “Inhibition ratio (%)” value [12] was 11.97%. The “Inhibition ratio (%)” value [13] was 27.81%, the “Inhibition ratio (%)” value [14] was 4.92% and the “Inhibition ratio (%)” value [15] was 24.12%. The “Inhibition ratio (%)” value ([16]; 10 µM, radioligand [^3H]DTG, mean of duplicate) was 86% and 85.89%, the IC50 ([16]; competitive inhibition curve, [^3H]DTG, duplicate) was 1100 nM and the “affinity for sigma receptor relative to existing sigma receptor ligand (haloperidol)” value ([16]; fraction of the affinity of haloperidol) was “approximately 1/100”.
